Experimental findings from ChEMBL document CHEMBL5029194, “Discovery and Optimization of 7-Alkylidenyltetrahydroindazole-Based Acylsulfonamide EP3 Antagonists” (ACS Med Chem Lett, 2022) are described below.

Molecules are shown by their SMILES. Active and inactive are the calls of the source. No cut-off for these calls is given here.

The nature of data set [1]: Volume of distribution at steady state in Sprague-Dawley rat at 2 mg/kg, iv measured up to 24 hrs by LC-MS-MS analysis. It is filed as ADME, organism-based. As to conditions: in vivo, read-out: Vdss.
A short description of data set [2]: Half life in Sprague-Dawley rat at 10 mg/kg, po measured up to 24 hrs by LC-MS-MS analysis. It is filed as ADME, organism-based. Particulars: in vivo.
A short description of data set [3]: Cmax in Sprague-Dawley rat at 10 mg/kg, po measured up to 24 hrs by LC-MS-MS analysis. It is filed as ADME, organism-based. Details: route oral, dose 10 mg/kg, time <=24. As to conditions: in vivo.
Data set [4] in a line: Clearance in Sprague-Dawley rat at 2 mg/kg, iv measured up to 24 hrs by LC-MS-MS analysis. It is filed as ADME, organism-based. As to conditions: in vivo.
Data set [5] is described as follows: Oral bioavailability in Sprague-Dawley rat at 10 mg/kg measured up to 24 hrs by LC-MS-MS analysis. It is filed as ADME, organism-based. As to conditions: in vivo.
The nature of data set [6]: AUC(0 to 24 hrs) in Sprague-Dawley rat at 10 mg/kg, po measured up to 24 hrs by LC-MS-MS analysis. It is filed as ADME, organism-based. Details: route oral, dose 10 mg/kg, time <=24. As to conditions: in vivo.
A short description of data set [7]: Half life in Sprague-Dawley rat at 2 mg/kg, iv measured up to 24 hrs by LC-MS-MS analysis. Particulars: in vivo. It is filed as ADME, organism-based.
Data set [8] is described as follows: Cmax in Sprague-Dawley rat at 10 mg/kg, po measured up to 7 hrs by LC-MS-MS analysis. It is filed as ADME, organism-based. Details: route oral, dose 10 mg/kg, time <=7. As to conditions: in vivo.
Data set [9] can be described thus: AUClast in Sprague-Dawley rat at 10 mg/kg, po measured up to 7 hrs by LC-MS-MS analysis. It is filed as ADME, organism-based. Also noted: route oral, dose 10 mg/kg, time <=7. As to conditions: in vivo.
A short description of data set [10]: AUClast in Sprague-Dawley rat at 10 mg/kg, po measured up to 24 hrs by LC-MS-MS analysis. As to conditions: in vivo. Also noted: route oral, dose 10 mg/kg, time <=24. It is filed as ADME, organism-based.
The target in data set [11] is T1, Prostaglandin E2 receptor EP3 subtype (Rattus norvegicus, UniProt P34980).
T1 sequence (P34980 whole entry): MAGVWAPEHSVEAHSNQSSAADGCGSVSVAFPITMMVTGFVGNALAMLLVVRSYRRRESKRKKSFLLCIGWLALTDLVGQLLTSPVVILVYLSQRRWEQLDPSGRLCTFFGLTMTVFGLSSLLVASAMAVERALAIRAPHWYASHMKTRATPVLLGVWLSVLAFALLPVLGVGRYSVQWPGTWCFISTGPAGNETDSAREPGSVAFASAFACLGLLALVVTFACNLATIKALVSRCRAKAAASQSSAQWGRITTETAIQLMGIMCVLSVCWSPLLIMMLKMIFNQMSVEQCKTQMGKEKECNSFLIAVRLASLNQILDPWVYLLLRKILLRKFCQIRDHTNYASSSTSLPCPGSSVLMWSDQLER
As to the kind of experiment: Binding affinity to rat EP3 receptor assessed as inhibition constant.

Data set [12] has as its target T2, Prostaglandin E2 receptor EP1 subtype (Homo sapiens, UniProt P34995).
T2 sequence (P34995 whole entry): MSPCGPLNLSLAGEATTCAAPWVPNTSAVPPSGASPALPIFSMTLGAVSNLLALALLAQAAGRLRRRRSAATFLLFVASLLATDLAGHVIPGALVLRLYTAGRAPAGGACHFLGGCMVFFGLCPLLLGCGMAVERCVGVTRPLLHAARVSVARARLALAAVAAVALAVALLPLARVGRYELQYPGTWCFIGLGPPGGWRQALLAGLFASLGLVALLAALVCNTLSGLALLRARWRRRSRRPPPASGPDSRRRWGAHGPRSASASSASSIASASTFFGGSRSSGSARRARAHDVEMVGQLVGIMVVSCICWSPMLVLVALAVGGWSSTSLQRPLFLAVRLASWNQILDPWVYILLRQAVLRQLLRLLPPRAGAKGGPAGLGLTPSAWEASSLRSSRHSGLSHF
The experiment in a line: Binding affinity to human EP1 receptor assessed as inhibition constant.

The target in data set [13] is Prostaglandin E2 receptor EP2 subtype (Homo sapiens, UniProt P43116). The experiment in a line: Binding affinity to human EP2 receptor assessed as inhibition constant.
The subject of the next data set is Rattus norvegicus. As to the kind of experiment: In vivo antagonist activity at […] receptor in Sprague-Dawley rat assessed as reversal of sulprostone induced reduction in circulating insulin levels at 10 times Ki, administered as iv infusion measured up to 30 mins after glucose administration by glucose tolerance test. It is filed as functional, organism-based. Particulars: time min <=30.

Data set [14] deals with Prostaglandin E2 receptor EP4 subtype (Homo sapiens, UniProt P35408). The experiment in a line: Binding affinity to human EP4 receptor assessed as inhibition constant.
The nature of data set [15]: Free plasma concentration in Sprague-Dawley rat at 10 times Ki administered as iv infusion measured after 2 to 50 mins. It is filed as ADME, organism-based. As to conditions: in vivo, time 2-50 min.

Chain of Prostaglandin E2 receptor EP4 subtype (P35408 whole entry, the tested form may be a part): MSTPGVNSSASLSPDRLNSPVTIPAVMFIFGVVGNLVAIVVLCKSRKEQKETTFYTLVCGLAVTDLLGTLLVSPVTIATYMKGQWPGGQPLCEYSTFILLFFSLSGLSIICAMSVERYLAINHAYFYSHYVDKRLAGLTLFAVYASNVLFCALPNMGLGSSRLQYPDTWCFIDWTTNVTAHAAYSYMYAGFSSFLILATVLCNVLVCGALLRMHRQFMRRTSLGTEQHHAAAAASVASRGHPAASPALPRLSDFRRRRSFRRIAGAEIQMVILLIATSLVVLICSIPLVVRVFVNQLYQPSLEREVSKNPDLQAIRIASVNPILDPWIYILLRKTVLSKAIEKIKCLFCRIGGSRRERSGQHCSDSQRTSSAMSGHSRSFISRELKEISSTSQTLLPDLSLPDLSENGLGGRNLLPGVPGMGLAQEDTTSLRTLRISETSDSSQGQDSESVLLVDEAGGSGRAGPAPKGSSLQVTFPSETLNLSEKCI
Chain of Prostaglandin E2 receptor EP2 subtype (P43116 whole entry, the tested form may be a part): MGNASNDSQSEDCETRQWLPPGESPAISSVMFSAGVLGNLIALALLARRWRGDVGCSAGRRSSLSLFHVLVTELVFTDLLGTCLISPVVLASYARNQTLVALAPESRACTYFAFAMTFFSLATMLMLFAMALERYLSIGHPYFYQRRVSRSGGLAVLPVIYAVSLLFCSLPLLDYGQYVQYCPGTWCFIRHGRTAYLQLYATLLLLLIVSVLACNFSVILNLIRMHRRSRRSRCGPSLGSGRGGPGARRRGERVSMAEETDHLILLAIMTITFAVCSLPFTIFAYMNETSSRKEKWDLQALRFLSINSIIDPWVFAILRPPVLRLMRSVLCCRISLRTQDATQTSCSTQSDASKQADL

For orientation: half-life means the time in which the quantity being followed falls by half. Lower therefore signals fast loss. As a reminder, the Cmax is the maximum level reached in the sampled fluid or tissue. One may read the clearance as the rate of elimination divided by the concentration. Low readings indicate a low capacity for elimination, high ones a high capacity for elimination. Broadly, the bioavailability is the share of a dose that reaches the circulation, judged against a reference dose that is usually intravenous. A low value points to poor availability. As a reminder, the AUC(0-t) is the area under the concentration-time curve up to a stated or last time point. A lower AUC(0-t) goes with less exposure. In the case of `O=C(NS(=O)(=O)c1ccc(Cl)cc1)OC/C=C1\CCCc2cnn(Cc3ccc(Cl)cc3Cl)c21`, the Vd in [1] came out at 4.61 L/kg. Besides, the values for the half-life in [2] and in data set [7] were 3.6 h and 3.5 h, respectively. Also, the Cmax in [3] amounted to 750 nM. In [4], the clearance stood at 21.3 mL/min/kg. Also, in data set [5], the bioavailability was 46%. Besides, the AUC(0-t) in data set [6] came to 7.43 µM·h.
On to `O=C(NC/C(F)=C1\CCCc2cnn(-c3ccc(C(F)(F)F)cc3)c21)NS(=O)(=O)c1cc(Cl)c(Cl)s1`, for which, in data set [8], the peak level (Cmax) was 700 nM. This molecule also gave an AUC(0-t) at 7 h in [9] of 3.68 µM·h.
Turning to `O=C(NC/C=C1\CCCc2cnn(Cc3ccc(Cl)cc3Cl)c21)NS(=O)(=O)c1cc(Cl)c(Cl)s1`, the Vd in [1] amounted to 2.21 L/kg. Further, the half-life is 2.8 h in data set [2] and 0.79 h in [7]. Further, in data set [3], the Cmax worked out at 1670 nM. The molecule also came in with a clearance in data set [4] of 81.2 mL/min/kg. The same molecule had a bioavailability in data set [5] of 84%. Further, the AUC(0-t) in [6] was 2.75 µM·h. The molecule further showed an AUC(0-t) at 24 h in [10] of 2.75 µM·h.
For `COc1ccc(S(=O)(=O)NC(=O)NC/C(F)=C2\CCCc3cnn(Cc4ccc(Cl)cc4Cl)c32)cc1Cl`, the Vd in data set [1] came to 0.346 L/kg. For the same molecule, the values for the half-life in data set [2] and in data set [7] were 2.9 h and 6.2 h, respectively. Further, the Cmax in [3] turned out to be 9390 nM; in data set [8], 7100 nM. In data set [4], this molecule yielded a clearance of 2.6 mL/min/kg. Moreover, in [5], the bioavailability came to 44%. Also, the AUC(0-t) in data set [6] came out at 49 µM·h. This molecule returned an AUC(0-t) at 7 h in data set [9] of 31.9 µM·h.
`Cc1ncc(S(=O)(=O)NC(=O)NC/C=C2\CCCc3cnn(Cc4ccc(Cl)cc4Cl)c32)s1` gave a Cmax in [8] of 510 nM. Also, the AUC(0-t) at 7 h in [9] stood at 2.4 µM·h.
The like results for `O=C(NC/C=C1\CCCc2cnn(C3CCN(c4ccc(F)cc4)CC3)c21)NS(=O)(=O)c1cc(Cl)c(Cl)s1` were, in that order, 130 nM and 0.73 µM·h.
For `O=C(NC/C=C1\CCCc2cnn(-c3ccc(C(F)(F)F)cc3)c21)NS(=O)(=O)c1cc(Cl)c(Cl)s1`, in that order: 1540 nM and 7.39 µM·h.
On to `Cc1cc(S(=O)(=O)NC(=O)NC/C(F)=C2\CCCc3cnn(Cc4ccc(Cl)cc4Cl)c32)sc1Cl`, for which the Vd in data set [1] came out at 0.491 L/kg. The half-life in data set [2] is 3.2 h; in data set [7], 5.9 h. Moreover, the Cmax in data set [3] was 9950 nM; in data set [8], 11200 nM. For the same molecule, in data set [4], the clearance came to 1.66 mL/min/kg. This molecule had a bioavailability in data set [5] of 55%. The AUC(0-t) in data set [6] stood at 96.2 µM·h. In data set [9], the AUC(0-t) at 7 h amounted to 57.8 µM·h.
Take `O=C(NS(=O)(=O)c1cc(Cl)c(Cl)s1)OC/C=C1\CCCc2cnn(Cc3ccc(Cl)cc3Cl)c21`: in data set [1], the Vd was 3.45 L/kg. Moreover, the half-life in [2] was 2.3 h; in data set [7], 2.1 h. Further, in data set [3], the concentration peaked (Cmax) at 130 nM. In [4], this molecule returned a clearance of 71.7 mL/min/kg. This molecule also yielded a bioavailability in data set [5] of 24%. For the same molecule, the AUC(0-t) in [6] was determined as 0.89 µM·h.
In general, Ki refers to the dissociation constant of the complex between target and ligand, obtained from inhibition or displacement. For `O=C(NC/C=C1\CCCc2cnn(Cc3ccc(Cl)cc3Cl)c21)NS(=O)(=O)c1ccc(Cl)cc1`, the Vd in data set [1] amounted to 1.44 L/kg. The Ki is 0.0036 µM in data set [11], 3.5 µM in data set [12], > 10 µM in data set [13] and > 10 µM in data set [14]. Moreover, the half-life in data set [2] was 2.8 h; in data set [7], 1.9 h. The same molecule registered a Cmax in data set [3] of 1110 nM. In [4], this molecule returned a clearance of 14.9 mL/min/kg. Besides, the result in the data set on Rattus norvegicus was Active. The same molecule returned a bioavailability in data set [5] of 25%. The same molecule had an area under the curve AUC(0-t) in data set [6] of 5.27 µM·h. In [10], this molecule came in with an AUC(0-t) at 24 h of 5.27 µM·h. In addition, in data set [15], the “Cp(f)” value came out at 36 nM.
As for `O=C(NC/C(F)=C1\CCCc2cnn(Cc3ccc(Cl)cc3Cl)c21)NS(=O)(=O)c1cc(Cl)c(Cl)s1`, in data set [8], the maximum concentration (Cmax) was found to be 3820 nM. Further, in data set [9], the AUC(0-t) at 7 h is 16.6 µM·h.
For `COc1ccc(Cl)cc1S(=O)(=O)NC(=O)NC/C(F)=C1\CCCc2cnn(Cc3ccc(Cl)cc3Cl)c21`, in that order: 4750 nM and 10.8 µM·h.
